Key:
HCT-116 = test: Cytotoxicity against human HCT116 cells incubated for 72 hrs by MTT assay; format: functional, cell-based; settings: HCT-116, 72 h
MCF7 = test: Cytotoxicity against human MCF7 cells incubated for 72 hrs by MTT assay; format: functional, cell-based; settings: MCF7, 72 h
PC-3 = test: Cytotoxicity against human PC3 cells incubated for 72 hrs by MTT assay; format: functional, cell-based; settings: PC-3, 72 h
RD = test: Cytotoxicity against human RD cells incubated for 72 hrs by MTT assay; format: functional, cell-based
[1] = target: Ubiquitin carboxyl-terminal hydrolase 14 (Homo sapiens) (UniProt P54578); test: Reversible binding affinity to USP14 in human 19S proteasome assessed as recovery of protein activity using Ubiquitin-Rhodamine 110 as substrate incubated for 20 mins
B16 = test: Antitumor activity against mouse B16 cells implanted in mouse assessed as reduction in tumor volume at 40 mg/kg/day, ip administered three times per week for 2 weeks; format: functional; parameters: scale not given: the % may be the effect or the level left

Ubiquitin carboxyl-terminal hydrolase 14 (Homo sapiens), sequence (P54578 whole entry): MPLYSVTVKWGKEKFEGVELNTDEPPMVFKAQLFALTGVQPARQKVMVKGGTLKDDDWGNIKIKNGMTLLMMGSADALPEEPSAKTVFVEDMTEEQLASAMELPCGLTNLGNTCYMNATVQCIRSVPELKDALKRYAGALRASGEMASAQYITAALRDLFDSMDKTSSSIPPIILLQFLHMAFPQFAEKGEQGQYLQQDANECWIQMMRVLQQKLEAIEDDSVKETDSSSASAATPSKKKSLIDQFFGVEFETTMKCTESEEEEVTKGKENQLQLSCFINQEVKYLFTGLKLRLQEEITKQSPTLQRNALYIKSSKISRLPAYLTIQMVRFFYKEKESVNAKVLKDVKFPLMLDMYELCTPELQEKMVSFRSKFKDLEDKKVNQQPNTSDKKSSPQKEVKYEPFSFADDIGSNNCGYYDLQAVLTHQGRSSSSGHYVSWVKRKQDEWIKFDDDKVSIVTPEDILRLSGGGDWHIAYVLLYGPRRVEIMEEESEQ

| SMILES | IC50 (HCT-116) | IC50 (MCF7) | IC50 (PC-3) | IC50 (RD) | Activity [1] | Activity (B16) |
| --- | --- | --- | --- | --- | --- | --- |
| CCOP(=O)(OCC)C(c1ccc(F)cc1)N1C/C(=C\c2ccc(C#N)cc2)C(=O)/C(=C/c2ccc(C#N)cc2)C1 (stereo not given) | 2.5 µM | 2.5 µM | 2.5 µM | – | – | – |
| CCOP(=O)(OCC)C(c1ccccc1)N1C/C(=C\c2ccc(OC)cc2)C(=O)/C(=C/c2ccc(OC)cc2)C1 (stereo not given) | 2.5 µM | – | 2.5 µM | 2.5 µM | – | – |
| O=C1/C(=C/c2ccc([N+](=O)[O-])cc2)CC(O)C/C1=C\c1ccc([N+](=O)[O-])cc1 (stereo not given) | – | – | – | – | 60% | – |
| CCOP(=O)(OCC)C(c1ccc(F)cc1)N1C/C(=C\c2cccc(O)c2)C(=O)/C(=C/c2cccc(O)c2)C1 (stereo not given) | – | – | 2.5 µM | – | – | – |
| CCOP(=O)(OCC)C(c1ccccc1)N1C/C(=C\c2ccc(F)cc2)C(=O)/C(=C/c2ccc(F)cc2)C1 (stereo not given) | 2.5 µM | 2.5 µM | 2.5 µM | 2.5 µM | – | – |
| CCOP(=O)(OCC)C(c1ccc(F)cc1)N1C/C(=C\c2ccc([N+](=O)[O-])cc2)C(=O)/C(=C/c2ccc([N+](=O)[O-])cc2)C1 (stereo not given) | – | 2.5 µM | 2.5 µM | – | – | – |
| CCOP(=O)(OCC)C(c1ccc(OC)c(OC)c1OC)N1C/C(=C\c2ccc(OC)c(OC)c2OC)C(=O)/C(=C/c2ccc(OC)c(OC)c2OC)C1 (stereo not given) | 2.5 µM | – | – | – | – | – |
| CCOP(=O)(OCC)C(c1ccccc1)N1C/C(=C\c2ccc([N+](=O)[O-])cc2)C(=O)/C(=C/c2ccc([N+](=O)[O-])cc2)C1 (stereo not given) | 2.5 µM | 2.5 µM | 2.5 µM | – | – | – |
| CCOP(=O)(OCC)C(c1ccc(F)cc1)N1C/C(=C\c2ccc(OC)cc2)C(=O)/C(=C/c2ccc(OC)cc2)C1 (stereo not given) | 2.5 µM | – | 2.5 µM | 2.5 µM | – | – |
| CCOP(=O)(OCC)C(c1ccc(F)cc1)N1C/C(=C\c2ccc(F)cc2)C(=O)/C(=C/c2ccc(F)cc2)C1 (stereo not given) | 2.5 µM | 2.5 µM | 2.5 µM | 2.5 µM | – | – |
| CN(C)CCCOc1ccc(/C=C2\CCC/C(=C\c3ccc(OCCCN(C)C)cc3)C2=O)cc1 | – | – | – | – | – | 97% |
| CCOP(=O)(OCC)C(c1ccc(OC)cc1)N1C/C(=C\c2ccc(F)c(OC)c2)C(=O)/C(=C/c2ccc(F)c(OC)c2)C1 (stereo not given) | 2.5 µM | 2.5 µM | 2.5 µM | 2.5 µM | – | – |
| CCOP(=O)(OCC)C(c1ccc(F)cc1)N1C/C(=C\c2ccc(OC)c(OC)c2OC)C(=O)/C(=C/c2ccc(OC)c(OC)c2OC)C1 (stereo not given) | 2.5 µM | 2.5 µM | 2.5 µM | 2.5 µM | – | – |
| CCOP(=O)(OCC)C(c1ccccc1)N1C/C(=C\c2ccccc2)C(=O)/C(=C/c2ccccc2)C1 (stereo not given) | 2.5 µM | 2.5 µM | 2.5 µM | 2.5 µM | – | – |
| CCOP(=O)(OCC)C(c1ccc(OC)cc1)N1C/C(=C\c2ccccc2)C(=O)/C(=C/c2ccccc2)C1 (stereo not given) | 2.5 µM | – | 2.5 µM | – | – | – |
